# Test results published in ChEMBL document CHEMBL1133492, “Design, synthesis, and biological evaluation of fluoronitrophenyl substituted folate analogues as potential inhibitors of GAR transformylase and AICAR transformylase” (Bioorg Med Chem Lett, 2000).
# Molecular target: Phosphoribosylglycinamide formyltransferase (Escherichia coli) (UniProt P08179)
# Assay: In vitro inhibitory activity against Glycinamide ribonucleotide transformylase (GAR Tfase) following 30 min pre-incubation at 250 uM concentration
# Chain of Phosphoribosylglycinamide formyltransferase (Escherichia coli) (P08179 whole entry, looked up): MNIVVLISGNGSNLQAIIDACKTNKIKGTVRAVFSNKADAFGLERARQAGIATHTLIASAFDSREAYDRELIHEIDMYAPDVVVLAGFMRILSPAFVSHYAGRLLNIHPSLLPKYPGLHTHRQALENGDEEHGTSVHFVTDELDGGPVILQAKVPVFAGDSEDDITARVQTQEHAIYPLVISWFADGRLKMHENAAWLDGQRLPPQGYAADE
row,Structure (SMILES),inhibition [%]
1,Nc1nc(N)c(CCCNc2cc(F)c(F)cc2[N+](=O)[O-])c(O)n1,82
2,Nc1nc(N)c(CCCNc2cc(F)ccc2[N+](=O)[O-])c(O)n1,69
3,COC(=O)c1ccc(CN(CCc2c(N)nc(N)nc2O)c2cc(F)c([N+](=O)[O-])cc2[N+](=O)[O-])cc1,24
4,Nc1nc(N)c(CCCNc2cc(F)cc(F)c2[N+](=O)[O-])c(O)n1,70
5,COC(=O)c1ccc(CN(CCc2c(N)nc(N)nc2O)c2cc(F)ccc2[N+](=O)[O-])cc1,43
6,COC(=O)c1ccc(CN(CCCc2c(N)nc(N)nc2O)c2cc(F)ccc2[N+](=O)[O-])cc1,41
7,COC(=O)c1ccc(CN(CCCc2c(N)nc(N)nc2O)c2cc(F)cc(F)c2[N+](=O)[O-])cc1,5
8,COC(=O)c1ccc(CN(CCc2c(N)nc(N)nc2O)c2cc(F)c(F)cc2[N+](=O)[O-])cc1,3
9,COC(=O)c1ccc(CN(CCc2c(N)nc(N)nc2O)c2cc(F)cc(F)c2[N+](=O)[O-])cc1,9
10,COC(=O)c1ccc(CN(CCCc2c(N)nc(N)nc2O)c2ccc([N+](=O)[O-])c(F)c2F)cc1,57
11,COC(=O)c1ccc(CN(CCCc2c(N)nc(N)nc2O)c2cc(F)c([N+](=O)[O-])cc2[N+](=O)[O-])cc1,9
12,COC(=O)c1ccc(CN(CCc2c(N)nc(N)nc2O)c2ccc([N+](=O)[O-])c(F)c2F)cc1,60
13,COC(=O)c1ccc(CN(CCCc2c(N)nc(N)nc2O)c2cc(F)c(F)cc2[N+](=O)[O-])cc1,33
14,Nc1nc(N)c(CCCNc2cc(F)c([N+](=O)[O-])cc2[N+](=O)[O-])c(O)n1,73
